Test results as given in patent publication US12630532B2, “Indole-substituted quinolines and their combination with Plk1 inhibitors for the treatment of cancer” (UNIVERSITY OF KENTUCKY RESEARCH FOUNDATION, priority 2021, dated 2026).

Experiments:
AMPK [1] = assay: AMPK activation (western blotting, pAMPK/pACC) in LS174T cells; type: cell-based
Protocol: (§1) Western blotting were performed according to previous procedures (25). Cells were split into 12-well plates. After 24 hours, compounds at indicated final concentrations were added to each well for another 24 hours unless otherwise noted. DMSO was used as a control. Cells were lysed in the appropriate volume of lysis buffer: 50 mM HEPES, 100 mM NaCl, 2 mM EDTA, 1% (v/v) glycerol, 50 mM NaF, 1 mM Na3VO4, 1% (v/v) Triton X-100, with protease inhibitors. Cell lysates were centrifuged, and supernatants were mixed with 6× protein loading buffer and boiled. The obtained samples were analyzed with standard western blotting methods with indicated antibodies.

AMPK [2] = assay: AMPK signaling (western blotting) in Beas-2B cells; type: cell-based; conditions: compared with CRC cells
Protocol: as §1

[3] = tested on: LS174T colon cancer cell xenografts; assay: In vivo antineoplastic activity and gross toxicity in LS174T xenografts
Protocol: Mouse studies were carried out with approval from the Institutional Animal Care and Use Committee of the University of Kentucky (2020-3531). All methods were performed in accordance with the relevant guidelines and regulations according to protocols. […] After tumors were established, mice were randomized according to tumor volume and divided into groups for treatments (five mice in each group, two tumors on each mouse).
The in vivo evaluation of ISQ-1 and BI2536 followed the approved protocol. After tumors were established, ISQ-1 was formulated in a mixture of Tween-80 (5%), DMSO (10%), PEG400 (25%) and PBS (60%) and was intraperitoneally administered to the ISQ-1 group at a daily dose of 20 mg/kg mouse body weight. The first day of treatment was set as day 0. At days 0, 4, and 7, BI2536 dissolved in 0.1 N HCl and then diluted 5-fold using 0.9% NaCl was given via gavage to the B12536 group. Mice in combination therapy group were treated with both ISQ-1 and BI2536 following aforementioned dosing schedules. At day 11 treatment was ceased and mice were sacrificed. Tumors and mouse weights were measured, and tumor volumes were calculated as Length×width^2/2.
Major biological assays were performed at least twice. Data were shown as mean SEM. For the mice study, five mice with two tumors on the lower flanks of each mouse were used in each treatment group. Sizes of the two tumors from each mouse were averaged, standardized by the tumor size on day 0, and log-transformed. ANOVA with Tukey's HSD test was used to compare the tumor size at the end of the study (day 11) between the combination therapy of ISQ-1 and B12536 and each single compound as well as the control. The equal variance assumption of ANOVA was assessed by Bartlett's test. All statistical studies were overseen in collaboration with a statistician in the University of Kentucky's Markey Cancer Center.

In the case of CN(C)c1ccc2cc(-c3cn(C)c4ccccc34)c(N)nc2c1 [ISQ-1, N^7,N^7-Dimethyl-3-(1-methyl-1H-indol-3-yl)quinoline-2,7-diamine], the AMPK activation (AMPK [1]) was “activated AMPK in a dose-dependent manner”, the AMPK signaling activation (AMPK [2]) was “less effective in activating AMPK signaling” and the “tumor growth of LS174T xenografts” value ([3]; nude mice, ISQ-1 20 mg/kg daily i.p., BI2536 30 mg/kg twice a week by gavage, day 11) was “inhibited tumor growth but did not induce tumor regression”. For the same compound, the “gross toxicities on the basis of mouse weight measurements” value ([3]; same dosing as efficacy study) was “No gross toxicities”.
